Laboratory results reported in ChEMBL document CHEMBL5143519, “Exploring disordered loops in DprE1 provides a functional site to combat drug-resistance in Mycobacterium strains” (Eur J Med Chem, 2022).
In brackets after ≈: the same amount, converted by molar mass. Activity calls are given as the source filed them. The calls are words filed in the database; no cut-off is given here.

Tests used:
[1] = system: Mycobacterium tuberculosis variant bovis; assay: Antimycobacterial activity against Mycobacterium bovis BCG assessed as inhibition of bacterial growth incubated for 7 days by microplate alamar blue assay; type: functional; settings: 168 h, time 7 day
[2] = system: Mycobacterium tuberculosis variant bovis; assay: Antimycobacterial activity against Mycobacterium bovis BCG overexpressing DprE1 assessed as inhibition of bacterial growth incubated for 7 days by microplate alamar blue assay; type: functional; settings: 168 h, time 7 day
[3] = system: Mycobacterium tuberculosis variant bovis; assay: Antimycobacterial activity against Mycobacterium bovis BCG assessed as reduction in bacterial colony forming units at 20 times MIC concentration measured after 21 days by time kill assay; type: functional; settings: time 21 day
[4] = system: Mycobacterium tuberculosis variant bovis; assay: Antimycobacterial activity against Mycobacterium bovis BCG overexpressing DprE1 assessed as reduction in bacterial colony forming units at 20 times MIC concentration measured after 21 days by time kill assay; type: functional, organism-based; settings: time 21.0 day
[5] = system: Mycobacterium tuberculosis variant bovis; assay: Antimycobacterial activity against Mycobacterium bovis BCG assessed as reduction in bacterial colony forming units at 20 times MIC concentration measured after 7 days by time kill assay; type: functional, organism-based; settings: time 7.0 day

| SMILES | MIC [1] | MIC [2] | Activity [3] | Activity [4] | Activity [5] |
| --- | --- | --- | --- | --- | --- |
| O=C(NC(=O)c1ccsc1NC(=O)c1nc2ccccc2s1)OCC1CCC1 | 12 µM (≈ 4.99 µg/mL) | 30 µM (≈ 12.5 µg/mL) | – | – | – |
| CCOC(=O)NC(=O)c1ccsc1NC(=O)c1nc2ccccc2s1 | 13.3 µM (≈ 4.99 µg/mL) | 66.5 µM (≈ 25 µg/mL) | 3 log10CFU/ml | – | – |
| O=C(NC(=O)c1ccsc1NC(=O)c1nc2ccccc2s1)OCC1CC1 | 3.11 µM (≈ 1.25 µg/mL) | 12.4 µM (≈ 4.99 µg/mL) | 3 log10CFU/ml | Active | Active |
| CO[C@H]1/C=C/O[C@@]2(C)Oc3c(C)c(O)c4c(O)c(c(/C=N/N5CCN(C)CC5)c(O)c4c3C2=O)NC(=O)/C(C)=C\C=C\[C@H](C)[C@H](O)[C@@H](C)[C@@H](O)[C@@H](C)[C@H](OC(C)=O)[C@@H]1C [RIFAMPIN] | 0.35 µM (≈ 0.288 µg/mL) | 0.35 µM (≈ 0.288 µg/mL) | 3 log10CFU/ml | – | – |
